“Also recorded” adds a separate entry of the source. Like-named read-outs stand apart in the source and are kept apart here.

The values below come from patent US5336483A (priority 1993, dated 1994).

In series [1] the test system is morphine-induced analgesia. Kind of series: In vivo antagonist activity: reversal of morphine-induced analgesia, rat paw withdrawal latency test. The note with it: for paw withdrawal latency after i.v. injection / reversal of behavioral arrest and other opioid effects / duration of reversal: 5 mg/kg i.v.; for paw withdrawal latency after i.v. injection: tested within 5-10 min; for paw withdrawal latency after i.v. injection / duration of reversal: morphine-treated rats; for reversal of behavioral arrest and other opioid effects: morphine sulphate 10 mg/kg s.c.; for prodrug behaviour: acetate esters vs 1 and 2; for blood brain barrier penetration: i.v., inferred from reversal of morphine effects in rats; for antagonist potency in vivo (comparison in words): morphine induced paw withdrawal latency; for reversal of the effects of morphine: rat paw withdrawal latency test. On the procedure:
Assessment of the ability of compounds 1, 2 and 10, 12 to cross the blood brain barrier was tested in male Sprague-Dawley rats (300 g) acutely treated with morphine. […] A baseline paw withdrawal to a radiant thermal stimulus was obtained in unrestrained animals as described in Iadarola et al., Brain Res. 1988, 455, 205-212 and Hargreaves, Pain 1988, 32, 77-78. The stimulus was set to give a baseline withdrawal latency of approximately 10 sec. and the cutoff was at 18 sec. After baseline testing, morphine sulphate, 10 mg/kg, was injected subcutaneously in a volume of 0.1 ml of saline/100 g of body weight.
Ioxy (1) and epiloxy (2) were evaluated in rat and guinea pig brain membranes for their opiate receptor selectivity and potency. […] This comparison was not made during development of the ^18 F cyclofoxy compounds.

Series [2] has as its target μ and κ2 receptor. Kind of series: Displacement of [^3 H]CycloFOXY, μ and κ2 receptor binding, rat brain lysed-P2 membranes.
Series [3] addresses T1, High Affinity δ Receptors (Rattus norvegicus, UniProt P33533).
T1 construct: and rat lysed-P2 membranes as previously described; from tissue; host or cells: rat lysed-P2 membranes (brain)
Kind of series: Displacement of [^3 H]DADLE, high affinity δ receptors, rat lysed-P2 membranes. The format is binding.

In series [4] the target is Low Affinity δ Receptors. Kind of series: Displacement of [^3 H]DADLE, low affinity δ receptors, rat lysed-P2 membranes. The format is binding.
Series [5] deals with κ2 receptor. Kind of series: Displacement of [^3 H]BRM (bremazocine), κ2 receptor binding, guinea pig brain membranes depleted of μ and δ sites. The note with it: for less potent (fold) than ioxy: [^3 H]BRM displacement.
Series [6] deals with T2, κ1 receptor (Cavia porcellus, UniProt P41144).
T2 construct: from tissue; host or cells: guinea pig brain membranes, pretreated with BIT and FIT
Kind of series: biochemical. The format is binding, guinea pig.

Series [7] has as its target T3, μ receptor (Rattus norvegicus, UniProt P33535).
T3 construct: and rat lysed-P2 membranes as previously described; from tissue; host or cells: rat brain, lysed-P2 membranes
Kind of series: Displacement of [^3 H]DAGO, μ receptor binding, rat lysed-P2 membranes.

In series [8] the test system is opiate rich areas of rat brain. Kind of series: In vivo labelling of rat brain determined by autoradiography. The note with it: i.v. in rats, preliminary. On the procedure: The radiolabelled products were stored at -20° C. and used within 1 week of purification. The material was dried down under a gentle stream of nitrogen and redissolved in normal saline prior to intravenous (IV) injection into rats (300 g, male Sprague-Dawley) in a volume of 100 μl/100 g body weight.
Cleavage of the 3-O-acetyl group of [^125 I]3-O-Acetylioxy ([^125 I]10) was performed starting with 315 μCi of [^125 I]3-O-Acetylioxydissolved in 50 μl of acetonitrile. To this solution at 25° C. was added 50 μl of concentrated aqueous ammonia solution and the reaction mixture was allowed to stand at 25° C. for 20 min. The reaction solvent was removed by careful evaporation under a stream of nitrogen. The residue was dissolved in 50 μl of 0.1% aqueous TFA/acetonitrile and purified by HPLC as described above for [^125 I]3-O-Acetylioxy to give [^125 I]1 (279 μCi, 88.5% yield). […] The [^125 I]ioxy eluted with the exact elution profile of unlabelled ioxy(1). The product was stored at -20° C. and used within 1 week of purification. The material was dried down under a gentle stream of nitrogen and redissolved in normal saline prior to intravenous (IV) injection into rats (300 g, male Sprague-Dawley) in a volume of 100 μl/100 g body weight.

T1 sequence (P33533 whole entry): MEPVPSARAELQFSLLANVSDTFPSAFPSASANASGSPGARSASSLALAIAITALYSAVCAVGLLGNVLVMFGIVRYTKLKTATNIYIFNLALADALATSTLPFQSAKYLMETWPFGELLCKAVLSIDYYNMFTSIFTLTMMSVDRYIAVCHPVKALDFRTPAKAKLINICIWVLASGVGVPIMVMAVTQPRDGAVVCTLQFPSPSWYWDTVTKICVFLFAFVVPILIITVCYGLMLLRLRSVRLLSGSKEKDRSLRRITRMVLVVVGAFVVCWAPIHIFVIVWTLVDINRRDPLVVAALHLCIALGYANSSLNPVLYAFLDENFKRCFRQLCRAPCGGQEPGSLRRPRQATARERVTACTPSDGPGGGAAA
T3 sequence (P33535 whole entry): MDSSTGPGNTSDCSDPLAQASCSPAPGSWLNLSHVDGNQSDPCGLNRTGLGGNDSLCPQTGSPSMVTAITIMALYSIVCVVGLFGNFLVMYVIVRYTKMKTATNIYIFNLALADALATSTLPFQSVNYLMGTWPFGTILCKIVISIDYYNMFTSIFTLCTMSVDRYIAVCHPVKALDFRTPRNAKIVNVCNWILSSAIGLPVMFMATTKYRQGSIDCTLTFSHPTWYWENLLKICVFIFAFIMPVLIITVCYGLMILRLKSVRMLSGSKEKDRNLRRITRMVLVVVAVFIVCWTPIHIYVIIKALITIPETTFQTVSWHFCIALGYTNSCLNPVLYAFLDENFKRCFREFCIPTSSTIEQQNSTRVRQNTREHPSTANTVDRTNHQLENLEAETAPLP
T2 sequence (P41144 whole entry): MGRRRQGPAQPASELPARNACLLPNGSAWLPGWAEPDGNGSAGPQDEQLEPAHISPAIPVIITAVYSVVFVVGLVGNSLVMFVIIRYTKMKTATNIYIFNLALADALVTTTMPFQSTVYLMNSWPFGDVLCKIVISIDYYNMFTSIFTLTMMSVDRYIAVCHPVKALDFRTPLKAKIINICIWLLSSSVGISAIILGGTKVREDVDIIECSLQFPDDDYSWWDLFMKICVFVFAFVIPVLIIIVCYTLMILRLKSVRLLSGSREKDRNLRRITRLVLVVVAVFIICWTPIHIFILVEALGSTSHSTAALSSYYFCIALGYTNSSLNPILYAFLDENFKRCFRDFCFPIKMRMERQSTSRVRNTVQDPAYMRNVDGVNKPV

On to `CC(=O)Oc1ccc2c3c1O[C@H]1[C@H](I)CC[C@@]4(O)[C@@H](C2)N(CC2CC2)CC[C@]314` [Compound 10, 3-Acetoxy-6β-Iodo-14-Hydroxy-17-Cyclopropylmethyl-4,5α-Epoxymorphinan], for which, in series [1], the “paw withdrawal latency after i.v. injection” value (“paw withdrawal latency” for short) is on record as “returned to near baseline values”; the “reversal of behavioral arrest and other opioid effects” value was “reversed in a matter of seconds”; the duration of reversal entry was “at least 40 min”; the prodrug behaviour result is “served as prodrug forms of 1 and 2”. In series [1], the “blood brain barrier penetration” value is “getting into the brain; also recorded: penetrated the blood brain barrier more effectively”, the “antagonist potency in vivo (comparison in words)” value (“antagonist potency in vivo” for short) is “more potent effects on morphine induced paw withdrawal latency than their corresponding phenolic counterparts” and the “reversal of the effects of morphine” value is recorded as “complete reversal of the effects of morphine”.

For `CC(=O)Oc1ccc2c3c1O[C@H]1[C@@H](I)CC[C@@]4(O)[C@@H](C2)N(CC2CC2)CC[C@]314` [Compound 12, 3-Acetoxy-6α-Iodo-14-Hydroxy-17-Cyclopropylmethyl-4,5α-Epoxymorphinan], in series [1], the “paw withdrawal latency” value is reported as “returned to near baseline values”; the “reversal of behavioral arrest and other opioid effects” value is given as “reversed in a matter of seconds”; the duration of reversal entry was “at least 40 min”; the prodrug behaviour result was “served as prodrug forms of 1 and 2”. Also, in series [1], the “blood brain barrier penetration” value is recorded as “getting into the brain; also recorded: penetrated the blood brain barrier more effectively”, the “antagonist potency in vivo” value was “more potent effects on morphine induced paw withdrawal latency than their corresponding phenolic counterparts” and the “reversal of the effects of morphine” value is on record as “complete reversal of the effects of morphine”.

One may read the IC50 as the concentration needed to halve the response being measured. Usually Ki stands for a measure of affinity in units of concentration, obtained from inhibition or displacement. Low readings indicate higher affinity, high ones lower affinity. In the case of `Oc1ccc2c3c1O[C@H]1[C@H](Br)CC[C@@]4(O)[C@@H](C2)N(CC2CC2)CC[C@]314` [CycloBROXY, reference compound], the half-inhibitory concentration (IC50) in series [2] came out at 3.14 ± 0.11 nM; in series [3] (read-out: IC50) it was 4.3 nM; in series [4], 5.77 ± 0.14 nM; in series [5] it was 20.2 ± 1.2 nM; in series [6] it was 0.7 ± 0.02 nM; in series [7], 4.21 ± 0.14 nM. The Ki in series [2] worked out at 1.19 nM; in series [3], 1.96 nM; in series [4], 4.92 nM; in series [5], 7.21 nM; in series [6], 0.32 nM; in series [7], 1.23 nM. The “relative affinity / potency in words” value in series [2] ([^3 H]CycloFOXY displacement) is “intermediate receptor affinity”. The “N (slope factor)” value in series [3] ([^3 H]DADLE, high affinity δ) is recorded as 0.99 ± .09; in series [6] ([^3 H]U69,593 displacement), 1.03 ± .03; in series [7] ([^3 H]DAGO displacement), 1.05 ± .04. In series [3] ([^3 H]DADLE, high affinity δ), the “higher affinity (fold)” value was determined as 6 fold. Besides, the “less potent (fold) than ioxy” value in series [5] worked out at 3 fold. Further, in series [6] ([^3 H]U69,593 displacement), the “relative potency in words” value is reported as “most potent displacers”. Also, the “lower affinity / less potent (fold) than ioxy” value in series [7] ([^3 H]DAGO displacement) is given as “about 1.5 fold”.

Regarding `Oc1ccc2c3c1O[C@H]1[C@H](F)CC[C@@]4(O)[C@@H](C2)N(CC2CC2)CC[C@]314` [CycloFOXY, 6β-fluoro-3,14-dihydroxy-17-cyclopropyl methyl-4,5α-epoxymorphinan, reference compound], in series [6] (ratio κ1/μ), the “kappa selectivity κ1/μ” value was found to be 0.89.

In series [2], `Oc1ccc2c3c1O[C@H]1[C@@H](I)CC[C@@]4(O)[C@@H](C2)N(CC2CC2)CC[C@]314` [EpilOXY, 6α-Iodo-3,14-Dihydroxy-17-Cyclopropylmethyl-4,5α-Epoxymorphinan] yielded an IC50 of 4.34 ± 0.19 nM and a Ki of 1.65 nM. The “reduction in affinity (fold) compared with ioxy (1)” value in series [2] ([^3 H]CycloFOXY displacement) is on record as 6 fold. The affinity in series [3] corresponds to a Ki of 46.2 nM. Moreover, in series [3] ([^3 H]DADLE, high affinity δ), the “N (slope factor)” value is reported as 0.99 ± .07 and the “lowered affinity / less potent (fold) than ioxy (1)” value is 4 fold. Besides, the IC50 in series [3] (read-out: IC50) turned out to be 101 ± 8.4 nM. In addition, in series [4], the IC50 came out at 8.06 ± 0.58 nM and the Ki was 6.88 nM. Besides, the “lower affinity (fold) than ioxy (1)” value in series [4] ([^3 H]DADLE, low affinity δ) turned out to be 3 fold. Also, in series [5], the IC50 amounted to 23.7 ± 1.1 nM, the Ki came out at 8.46 nM and the “less potent (fold) than ioxy” value came to 3 fold. In series [6], the 50% inhibitory concentration (IC50) turned out to be 3.17 ± 0.06 nM, the Ki turned out to be 1.49 nM, the “N (slope factor)” value is listed as 1.10 ± .02 and the “less potent (fold) than ioxy” value is 4 fold. In series [7], this compound gave an IC50 of 7.16 ± 0.72 nM and a Ki of 2.09 nM. Further, in series [7] ([^3 H]DAGO displacement), the “N (slope factor)” value is on record as 0.95 ± .08 and the “lower affinity / less potent (fold) than ioxy” value turned out to be 2 fold. For the same compound, in series [1], the “paw withdrawal latency” value is given as “returned to near baseline values”; the “reversal of behavioral arrest and other opioid effects” value is “reversed in a matter of seconds”; the duration of reversal entry was “at least 40 min”; the “blood brain barrier penetration” value is “getting into the brain”. Also, in series [1], the “reversal of the effects of morphine” value was “complete reversal of the effects of morphine”.

As to `Oc1ccc2c3c1O[C@H]1[C@H](I)CC[C@@]4(O)[C@@H](C2)N(CC2CC2)CC[C@]314` [IOXY, 6β-Iodo-3,14-Dihydroxy-17-Cyclopropylmethyl-4,5α-Epoxymorphinan], the IC50 in series [2] is 0.77 ± 0.05 nM; in series [3] it was 5.6 ± 3.1 nM; in series [4] ([…], ligand concentration = 2.1 nM), 2.64 ± 0.21 nM; in series [5], 7.65 ± 0.23 nM; in series [6], 0.89 ± 0.01 nM; in series [7] it was 2.74 ± 0.21 nM. Moreover, the inhibition constant (Ki) in series [2] amounted to 0.29 nM; in series [3], 11.7 nM; in series [4] it was 2.25 nM; in series [5], 2.73 nM; in series [6], 0.42 nM; in series [7], 0.8 nM. The “relative affinity / potency in words” value in series [2] ([^3 H]CycloFOXY displacement) is on record as “more potent than the opiate antagonist, naltrexone”. Also, the “N (slope factor)” value is listed as 0.77 ± .07 in series [3] ([^3 H]DADLE, high affinity δ); 1.04 ± .02 in series [6]; 1.05 ± .07 in series [7] ([^3 H]DAGO displacement). For the same compound, the “relative affinity in words” value in series [4] ([^3 H]DADLE, low affinity δ) is reported as “highest affinity of all the compounds tested”. The “kappa selectivity κ2/μ” value in series [5] (ratio κ2/μ) is 0.3. For the same compound, in series [6], the “kappa selectivity κ1/μ” value amounted to 1.9. Also, the “relative potency in words” value in series [6] is “most potent displacers”; in series [7] ([^3 H]DAGO displacement), “most potent”. The “paw withdrawal latency” value in series [1] was “returned to near baseline values”. Moreover, the “reversal of behavioral arrest and other opioid effects” value in series [1] is reported as “reversed in a matter of seconds”. The duration of reversal entry in series [1] was “at least 40 min”. Besides, the “blood brain barrier penetration” value in series [1] is “readily passed the blood brain barrier”; in series [1] (listed as 1), “getting into the brain”. Also, the “antagonist potency in vivo” value in series [1] (listed as Ioxy) is “more potent in vivo than compound 2 and cyclofoxy”; in series [1] (listed as ioxy), “potent opioid receptor antagonist in the rat; also recorded: more effective than epiioxy”. In addition, the “reversal of the effects of morphine” value in series [1] is on record as “complete reversal of the effects of morphine”.

In the case of `O=C1CC[C@@]2(O)[C@H]3Cc4ccc(O)c5c4[C@@]2(CCN3CC2CC2)[C@H]1O5` [Naltrexone, reference compound], in series [1], the “paw withdrawal latency” value is on record as “returned to near baseline values”; the “reversal of behavioral arrest and other opioid effects” value is recorded as “reversed in a matter of seconds”; the “reversal of the effects of morphine” value was “complete reversal of the effects of morphine”.

The Kd is a measure of binding affinity in units of concentration. As for `Oc1ccc2c3c1O[C@H]1[C@H](F)CC[C@@]4(O)[C@@H](C2)N(CC2CC2)CC[C@]314` [[^3 H]CycloFOXY, reference compound], in series [2] ([^3 H]CycloFOXY, read-out: Kd of radioligand), the Kd was 0.8 nM.

In the case of `Oc1ccc2c3c1O[C@H]1[C@H]([125I])CC[C@@]4(O)[C@@H](C2)N(CC2CC2)CC[C@]314` [[^125 I]1], the “in vivo labelling of rat brain” value in series [8] is “could label opiate rich areas of rat brain”.

“[D-ala^2, D-leu^5 ]enkephalin [[^3 H] DADLE, reference compound]”: the Kd in series [4] ([^3 H]DADLE, low affinity δ, δcx site, read-out: Kd of radioligand) came to 12.2 nM.
